Data reported in PMC7288171, “Synergistic Effects of Thiosemicarbazides with Clinical Drugs against S. aureus” (Molecules, 2020).
≈ marks a conversion by molar mass, not a printed value. Where two headings read alike, the source gives them in different places.

How the values were obtained:
[1] = test system: B. cereus ATCC 10876; assay: MIC, broth microdilution; format: cell-based; settings: Bacillus cereus, ATCC10876
Method: (§1) The antibacterial activity of the thiosemicarbazides 1–9 and antibiotics (amoxicillin, gentamicin, levofloxacin, linezolid, and vancomycin) was tested on the Gram-positive strains (Microbiologics, St. Cloud, MN, USA) (S. aureus ATCC 25923, S. aureus ATCC 6538, S. epidermidis ATCC 12228, B. subtilis ATCC 6633, B. cereus ATCC 10876, M. luteus ATCC 10240), the Gram-negative strains (Microbiologics, St. Cloud, MN, USA) (E. coli ATCC 25922, K. pneumoniae ATCC 13883, P. mirabilis ATCC 12453, P. aeruginosa ATCC 9027), and clinical isolates of S. aureus (Medical University of Lublin, Lublin, Poland) (MSSA-1, MSSA-2, MSSA-3, MSSA-4, MRSA-1).

[2] = test system: S. aureus ATCC 6538; assay: MIC, broth microdilution; format: cell-based; settings: Staphylococcus aureus, ATCC6538
Method: as §1

[3] = test system: S. aureus ATCC 25923; assay: MIC, broth microdilution; format: cell-based; settings: Staphylococcus aureus, ATCC25923
Method: as §1

[4] = test system: B. subtilis ATCC 6633; assay: MIC, broth microdilution; format: cell-based; settings: Bacillus subtilis, ATCC6633
Method: as §1

[5] = test system: M. luteus ATCC 10240; assay: MIC, broth microdilution; format: cell-based; settings: Micrococcus luteus, ATCC10240
Method: as §1

[6] = test system: S. epidermidis ATCC 12228; assay: MIC, broth microdilution; format: cell-based; settings: Staphylococcus epidermidis, ATCC12228
Method: as §1

[7] = test system: MSSA-1; assay: MIC, clinical isolate of S. aureus; format: cell-based; settings: Staphylococcus aureus
Method: as §1

[8] = test system: MSSA-4; assay: MIC, clinical isolate of S. aureus; format: cell-based; settings: Staphylococcus aureus
Method: as §1

[9] = test system: MRSA-1; assay: MIC, clinical isolate of S. aureus; format: cell-based; settings: Staphylococcus aureus
Method: as §1

[10] = test system: MSSA-2; assay: MIC, clinical isolate of S. aureus; format: cell-based; settings: Staphylococcus aureus
Method: as §1

[11] = test system: MSSA-3; assay: MIC, clinical isolate of S. aureus; format: cell-based; settings: Staphylococcus aureus
Method: as §1

[12] = target: T1, S. aureus DNA gyrase (Staphylococcus aureus, UniProt P0A0K8+P20831); assay: Gyrase supercoiling assay; format: biochemical
T1 construct: purchased Inspiralis, Norwich, UK
Method: Supercoiling assay: The assays were performed using S. aureus Gyrase Supercoiling Assay Kits (Inspiralis, Norwich, UK). Briefly, […] pBR322 plasmid DNA (0.5 µg) was incubated with 1 unit of gyrase, in the dedicated supercoiling assay buffer supplied by the manufacturer, in the presence of varying concentrations of the test compounds. Reactions were carried out at 37 °C for 1 h and then terminated by the addition of equal volume of 2 × STOP Buffer (40% sucrose, 100 mM Tris-Cl pH 7.5, 1 mM EDTA, and 0.5 mg/mL bromophenol blue) and chloroform/iso-amyl alcohol. Samples were vortexed, centrifuged, and run through a 15 cm 1% agarose gel in TAE buffer (40 mM Tris-acetate, 2 mM EDTA) for 3 h at 50 V. Gels were stained with ethidium bromide and visualized under UV light.

[13] = test system: S. aureus ATCC 25923; assay: Checkerboard broth dilution synergy assay; format: cell-based
Method: The microdilution checkerboard method was used to evaluate the synergistic effects between the thiosemicarbazides 1–9 and antibiotics, which were determined as the fractional inhibitory concentration indices (FICIs). For these experiments, amoxicillin, gentamicin, levofloxacin, linezolid, and vancomycin were selected to represent the five antimicrobial classes most commonly used in clinical practice. In this way, a total of 45 combinations of thiosemicarbazide-amoxicillin, thiosemicarbazide-gentamicin, thiosemicarbazide-levofloxacin, thiosemicarbazide-linezolid, and thiosemicarbazide-vancomycin against S. aureus ATCC 25923 were tested to identify in vitro synergy effects.
Interaction of the thiosemicarbazides 1–9 in combination with amoxicillin, gentamicin, levofloxacin, linezolid or vancomycin against S. aureus ATCC 25923 were analyzed using the checkerboard broth dilution method to determine the fractional inhibitory concentration indices (FICIs), calculated as: FIC = MIC of drug A in combination/MIC of drug A alone + MIC of drug B in combination/MIC of drug B alone. The calculated FICIs were interpreted as synergistic (FIC ≤ 0.5), additive (0.5 < FIC < 1), indifferent (1 ≤ FIC < 4.0), or antagonistic (FIC ≥ 4.0). The checkerboard assay included ciprofloxacin-carvedilol combination as positive control, whereas cefuroxime in combination with 4-(4-bromophenyl)-1-(3-fluorobezoyl)thiosemicarbazide served as negative control. The Z-factor value for the bioassay was 0.683.

[14] = test system: human foreskin fibroblast Hs27 cells (CRL-1634); assay: MTT cytotoxicity assay; format: cell-based; settings: Homo sapiens, 24 h of treatment
Method: (§2) A critical factor in research and development of new antibacterial agents is their abilities to selectively target bacterial cells without toxicity to mammalian cells. Thus, in order to test if antibacterial activity of title thiosemicarbazides is not due to their general toxicity, their effect on mammalian cell viability was assessed using human foreskin fibroblast Hs27 cells (CRL-1634) via MTT assay.
(§3) Cytotoxic properties of the compounds were evaluated using human foreskin fibroblast cells Hs27 (ATCC CRL-1634) (ATCC, Manassas, VA, USA) that were cultured in DMEM-high glucose (Sigma Aldrich, St. Louis, MO, USA). Medium was supplemented with 10% fetal bovine serum (FBS, Sigma Aldrich), 100 U/mL of penicillin, and […] of streptomycin (PenStrep, Sigma Aldrich, St. Louis, MO, USA). Cells were incubated at 37 °C in a humidified atmosphere of 5% CO2. Stock solutions of the tested compounds were prepared dissolving in a sterile dimethyl sulfoxide (DMSO) to the concentration of 50 mg/mL. The cells were seeded into 96-well sterile plates (Nunc) at a cell density of 1 × 10^5 cells/mL. After 24 h of incubation, the medium was removed from each well, and then cells were incubated for the next 24 h with tested compounds (in a fixed dose of 25 µg/mL) in DMEM-high glucose containing 2% FBS. Control cells were cultured only with medium containing 2% addition of FBS. Cytotoxicity of the compounds was evaluated using MTT assay, which is based on the conversion of 3-(4,5-dimethylthiazol-2-yl)-2,5- diphenyltetrazolium bromide (MTT) into dark-blue formazan crystals. Briefly, after 24-h incubation of cells with varying concentrations of the tested compounds, culture medium was removed from the plates. Cells were washed with PBS, and then 100 µL of medium containing 10% MTT solution (5 mg/mL) was added to each well. Cells were incubated for the next 3 h at 37 °C in an atmosphere of 5% CO2. Next, 100 µL (per well) of 10% sodium dodecyl sulfate (SDS) buffer solution was added to dissolve formazan crystals and after an overnight incubation the absorbance was measured at 570 nm using a microplate reader (Epoch, BioTek Instruments, Inc., Winooski, VT, USA).

[15] = MTT cytotoxicity assay; format: cell-based, human; settings: human, Hs27 foreskin fibroblast cells (ATCC CRL-1634), 25 µg/mL, 24 h, vehicle control = 100%
Method: as §2, §3

[16] = B. c. ATCC 10876, compounds 6–9 and antibiotics, read-out: MIC
[17] = S. a. ATCC 6538, compounds 6–9 and antibiotics, read-out: MIC
[18] = S. a. ATCC 25923, compounds 6–9 and antibiotics, read-out: MIC
[19] = B. s. ATCC 6633, compounds 6–9 and antibiotics, read-out: MIC
[20] = M. l. ATCC 10240, compounds 6–9 and antibiotics, read-out: MIC
[21] = S. e. ATCC 12228, compounds 6–9 and antibiotics, read-out: MIC
[22] = clinical isolate MSSA-1, read-out: MIC
[23] = clinical isolate MSSA-4, read-out: MIC
[24] = clinical isolate MRSA-1, read-out: MIC
[25] = clinical isolate MSSA-2, read-out: MIC
[26] = clinical isolate MSSA-3, read-out: MIC

SMILES	MIC [1, 16]	MIC [2, 17]	MIC [3, 18]	MIC [4, 19]	MIC [5, 20]	MIC [6, 21]	MIC [7, 22]	MIC [8, 23]	MIC [9, 24]	MIC [10, 25]	MIC [11, 26]	IC50 [14]	viability at 24 h, 25 µg/mL [15]	also measured
O=C(NNC(=S)Nc1ccc(Cl)cc1)c1ccccc1F [compound 6, 4-(4-chlorophenyl)-1-(2-fluorobenzoyl)thiosemicarbazide]	31.2 µg/mL (≈ 96.5 µM)	250 µg/mL (≈ 772 µM)	500 µg/mL (≈ 1540 µM)	500 µg/mL (≈ 1540 µM)	7.82 µg/mL (≈ 24.2 µM)	250 µg/mL (≈ 772 µM)	250 µg/mL (≈ 772 µM)	125 µg/mL (≈ 386 µM)	500 µg/mL (≈ 1540 µM)	> 500 µg/mL	250 µg/mL (≈ 772 µM)	> 25 µg/mL	96.8%	inhibition at 50 µM ([12]; 50 µM, read-out: S. aureus Gyrase DNA Inhibition (%) ± SD): 30.8 ± 3.19%; S. aureus Gyrase DNA Inhibition (%) ± SD ([12]; 100 µM): 49.22 ± 3.18%; inhibition at 100 µM ([12]; read-out: S. aureus Gyrase DNA Inhibition (%) ± SD, 100 µM): ~50%; interaction in combination ([13]; combination with amoxicillin): additive; interaction in combination ([13]; combination with gentamicin): synergistic; interaction in combination ([13]; combination with levofloxacin): additive; interaction in combination ([13]; combination with linezolid): synergistic; interaction in combination ([13]; combination with vancomycin): additive
C[C@H]1COc2c(N3CCN(C)CC3)c(F)cc3c(=O)c(C(=O)O)cn1c23 [LEV, levofloxacin, reference compound]	0.12 µg/mL (≈ 0.332 µM)	0.24 µg/mL (≈ 0.664 µM)	0.24 µg/mL (≈ 0.664 µM)	0.12 µg/mL (≈ 0.332 µM)	0.98 µg/mL (≈ 2.71 µM)	0.12 µg/mL (≈ 0.332 µM)	0.12 µg/mL (≈ 0.332 µM)	0.12 µg/mL (≈ 0.332 µM)	31.2 µg/mL (≈ 86.5 µM)	0.24 µg/mL (≈ 0.664 µM)	0.12 µg/mL (≈ 0.332 µM)	> 25 µg/mL	101%	inhibition at 100 µM ([12]; 100 µM, read-out: S. aureus Gyrase DNA Inhibition (%) ± SD): 92.4 ± 3.74%
CN[C@H](CC(C)C)C(=O)N[C@H]1C(=O)N[C@@H](CC(N)=O)C(=O)N[C@H]2C(=O)N[C@H]3C(=O)N[C@H](C(=O)N[C@H](C(=O)O)c4cc(O)cc(O)c4-c4cc3ccc4O)[C@H](O)c3ccc(c(Cl)c3)Oc3cc2cc(c3O[C@@H]2O[C@H](CO)[C@@H](O)[C@H](O)[C@H]2O[C@H]2C[C@](C)(N)[C@H](O)[C@H](C)O2)Oc2ccc(cc2Cl)[C@H]1O [VA, vancomycin, reference compound]														MIC [1]: 0.98 µg/mL (≈ 0.676 µM); MIC [2]: 0.49 µg/mL (≈ 0.338 µM); MIC [3]: 0.98 µg/mL (≈ 0.676 µM); MIC [4]: 0.24 µg/mL (≈ 0.166 µM); MIC [5]: 0.24 µg/mL (≈ 0.166 µM); MIC [6]: 0.98 µg/mL (≈ 0.676 µM); MIC ([7]; MSSA): 0.49 µg/mL (≈ 0.338 µM); MIC ([8]; MSSA): 0.49 µg/mL (≈ 0.338 µM); MIC ([9]; MRSA): 0.98 µg/mL (≈ 0.676 µM); MIC ([10]; MSSA): 0.49 µg/mL (≈ 0.338 µM); MIC ([11]; MSSA): 0.49 µg/mL (≈ 0.338 µM)

More lines, main results first:

MIC [1, 16]	MIC [2, 17]	MIC [3, 18]	MIC [4, 19]	MIC [5, 20]	MIC [6, 21]	MIC [7, 22]	MIC [8, 23]	MIC [9, 24]	MIC [10, 25]	MIC [11, 26]	SMILES	IC50 [14]	viability at 24 h, 25 µg/mL [15]	also measured
> 250 µg/mL	0.12 µg/mL (≈ 0.328 µM)	0.12 µg/mL (≈ 0.328 µM)	0.12 µg/mL (≈ 0.328 µM)	0.24 µg/mL (≈ 0.657 µM)	7.81 µg/mL (≈ 21.4 µM)	1.95 µg/mL (≈ 5.34 µM)	31.2 µg/mL (≈ 85.5 µM)	31.2 µg/mL (≈ 85.5 µM)	0.12 µg/mL (≈ 0.328 µM)	0.98 µg/mL (≈ 2.68 µM)	CC1(C)S[C@@H]2[C@H](NC(=O)[C@H](N)c3ccc(O)cc3)C(=O)N2[C@H]1C(=O)O [AMX, amoxicillin, reference compound]			
0.98 µg/mL (≈ 2.9 µM)	0.98 µg/mL (≈ 2.9 µM)	1.95 µg/mL (≈ 5.78 µM)	0.98 µg/mL (≈ 2.9 µM)	0.98 µg/mL (≈ 2.9 µM)	0.49 µg/mL (≈ 1.45 µM)	1.95 µg/mL (≈ 5.78 µM)	1.95 µg/mL (≈ 5.78 µM)	1.95 µg/mL (≈ 5.78 µM)	1.95 µg/mL (≈ 5.78 µM)	0.98 µg/mL (≈ 2.9 µM)	CC(=O)NC[C@H]1CN(c2ccc(N3CCOCC3)c(F)c2)C(=O)O1 [LZD, linezolid, reference compound]			
15.6 µg/mL (≈ 32.7 µM)	0.98 µg/mL (≈ 2.05 µM)	1.95 µg/mL (≈ 4.08 µM)	0.24 µg/mL (≈ 0.503 µM)	0.98 µg/mL (≈ 2.05 µM)	0.12 µg/mL (≈ 0.251 µM)	0.98 µg/mL (≈ 2.05 µM)	1.95 µg/mL (≈ 4.08 µM)	0.98 µg/mL (≈ 2.05 µM)	0.49 µg/mL (≈ 1.03 µM)	7.81 µg/mL (≈ 16.4 µM)	CNC(C)C1CCC(N)C(OC2C(N)CC(N)C(OC3OCC(C)(O)C(NC)C3O)C2O)O1 (stereo not shown) [GN, gentamicin, reference compound]			
